Laboratory results reported in patent publication US7122335B1, “Compounds and methods to enhance rAAV transduction” (priority 1999, dated 2006).
Peptide text beside a SMILES is read from it. * marks the point of attachment. Cbz = O=C(OCc1ccccc1)*

Tests used:
[1] = test system: primary human fibroblasts; format: cell-based; conditions: confluent fibroblasts, AV.GFP3ori MOI 1000, 96 hours post-infection; brefeldin A 10 μg/ml, vinblastine 22 μM, cytochalasin B 1 μM, NH4Cl 2 mM, chloroquine 20 μm, LLnL 400 μM, Z-LLL 4 μM
Experimental: FIG. 6. Primary confluent fibroblasts were infected with AV.GFP3ori virus at an MOI=1000 particles/cell following treatment with brefeldin A (10 μg/ml), vinblastine (22 μM), cytochalasin B (1 μM), NH4Cl (2 mM), chloroquine (20 μm), LLnL (400 μM), and Z-LLL (4 μM), final concentration indicated in brackets. Cells were harvested at 96 hours post-infection and the transduction efficiency was compared to untreated rAAV infected cells by FACS analysis for GFP expression. To control for non-specific effects caused by toxicity of the compounds, the percentage of live cells was also assessed by the absence of propidium iodide incorporation.
80% confluent human primary fibroblasts were infected with AV.GFP3ori at an moi of 1000 DNA particles/cell. FIG. 16A depicts GFP transgene expression in the absence (left photographs) and presence of 40 μM LLnL (right photographs) at 96 hours post-infection. […] Top and bottom panels represent bright field and FITC-channel fluorescent photomicrographs, respectively. The mean (+/−SEM, N=3) percentage of cells transduced with rAAV, as measured by FACS sorting of GFP expressing cells, is presented in the bar graph of FIG. 16B. […] In this study, rAAV from infected cells was first immunoprecipitated with anti-VP1,2,3 (AAV-2 capsid) monoclonal antibody followed by Western blot detection of ubiquitin side chains using an anti-ubiquitin monoclonal antibody. […] Epithelia were infected with AV.GFP3ori (10,000 particles/cell) from the basolateral surface following treatment with ubiquitin ligase inhibitor dipeptides (0.2 mM H-Leu-Ala-OH and 0.2 mM H-His-Ala-OH).
Initial studies were performed in confluent primary human fibroblasts since dose titrations and toxicity could be quickly assessed. Selected compounds were used to treat fibroblast monolayers prior to rAAV infection. rAAV transduction was assessed at 96 hours post-infection by FACS analysis, and the percentage of dead cells was simultaneously assessed by incorporation of propidium iodide.
These tripeptides are structurally related to chloroquine but have different lipid solubility and specificity for cysteine proteases (Seglen, 1983). These molecules decrease endosomal degradation of molecules by a mechanism different than altering pH.
Transduction of polarized airway epithelial cells and primary human fibroblasts. rAAV infection of fully differentiated bronchial cells was performed as described in Duan et al. (1998). For infections from the apical surface of the airway cells, 5 μl rAAV was mixed with 50 μl of culture media and applied directly onto the apical compartment of Millicell inserts (MOI=10,000 particles/cell). During apical infection, the basolateral side of the Millicell was continuously bathed in culture media. Gene transfer to the basal side was performed by inverting Millicell inserts and applying viral vector to the bottom of the supporting filter membrane in a 50 μl volume for 2 hours. Subsequently, Millicell inserts were returned to the upright position, in the continued presence of the original viral inoculum plus an additional 450 μl of media. For both apical and basolateral infections, rAAV containing media was removed after 24 hours and replaced with either fresh culture media (for the basal side) or exposed to air (for the apical side). To test the effect of different agents on the efficiency of AAV transduction in polarized airway cells, 1 μl of each solution was mixed with AAV prior to infection of airway epithelia. Agents were usually presented during the 24 hours AAV infection period unless indicated otherwise.

[2] = test system: polarized human bronchial epithelia; assay: S35-labeled rAAV binding/entry assay in polarized bronchial epithelia; format: cell-based
Experimental: FIGS. 12A and 12B. Binding and uptake of S^35-labeled AV.GFP3ori in fully differentiated human bronchial epithelia. The ability of polarized bronchial epithelia to bind and internalize virus from the apical or the basolateral surfaces was quantified using S^35-labeled rAAV. The binding assay was performed after incubation with virus at 4° C. for 1 hour, followed by repeated washing in PBS. The combined bound and internalized virus was quantified following incubation with virus at 4° C. for 1 hour, and subsequent incubation at 37° C. for 2 hours and 24 hours. Non-specific background binding of radiolabeled virus was determined in parallel studies on collagen coated empty chambers not seeded with bronchial cells. Background counts (averaging 15.67+/−5.17 cpm/well) were subtracted from experimental sample counts prior to analysis. Data in the right side of each figure is presented as the net cpms of bound/internalized virus (raw counts minus background counts of empty transwells). The results represent the mean (+/−SEM) of 6 independent transwells for each condition. Experiments were performed in triplicate from two independent tissue samples. The significance of the differences between each pair of samples (with or without LLnL) was evaluated using the Student's t-test and p-values are provided in brackets above the data for each condition. To correlate uptake of radioactive virus with the functional expression the rAAV encoded transgene, GFP expression from the same set of samples was quantified at 24 hour post-infection by indirect fluorescent microscopy. […]
Viral binding/entry assays and in situ localization of viral particles. […] Combined binding/entry of rAAV into differentiated airway epithelia was measured under the same conditions, except that the cultures were incubated at 37° C. for an additional 2–24 hours before they were harvested. […] After washing three times in PBS, cells were lysed in situ by the addition of 5 ml of liquid scintillation cocktail at room temperature for 5 minutes, and the radioactivity was quantitated in a scintillation counter.

[3] = Toxicity of proteasome inhibitors in mice, intra-tracheal and systemic (IV) delivery; format: in vivo; conditions: 10, 100 and 1000 fold higher doses than used in polarized airway cells
Experimental: Long-term enhancement of rAAV transduction by proteasome inhibitor in vivo. To evaluate the potential utility of proteasome inhibitors for in vivo gene therapy, both the toxicity and efficacy of these agents for in vivo rAAV mediated gene transfer in the mouse lung was tested. To assess the toxicity of these proteasome inhibitors in mice, 10, 100, and 1000 fold higher effective doses of LLnL or Z-LLL were administered than used to induce gene transfer in polarized airway cells, using both intra-tracheal and systemic (IV) delivery. No toxicity was indicated by histologic evaluation of the lung and liver (data not shown) or was evidenced by the death of animals. To investigate whether these proteasome inhibitors could improve rAAV transduction in vivo, AV.LacZ (5×10^10 particles) was delivered either alone or in the presence of 400 μM Z-LLL by intranasal administration. Mouse lungs were harvested at 3, 10 and 150 days post-infection to evaluate short and long term effects. […] Targeted transgene expression was predominantly confined to the conducting airways, rather than in the parenchyma. Alveolar cells were rarely transduced. […] The range of transgene expression in distal and proximal airways was 0 to 4% and 5 to 18%, respectively.

| Compound | rAAV transduction (GFP expression) compared to untreated rAAV infected cells [1] | uptake of S35 labeled rAAV ([2]; 2 hour infection period at 37° C.) | amount of intracellular radioactivity ([2]; 24 hours post-infection, either surface infected) | 4° C. rAAV binding ([2]; S35 labeled rAAV, with or without LLnL) | toxicity (histology of lung and liver, death of animals) [3] |
| --- | --- | --- | --- | --- | --- |
| N-acetyl-L-leucinyl-L-leucinal-L-norleucinal [LLnL] | significantly increased rAAV transduction | not altered | very significant decrease | no significant effect | No toxicity |
| CC(C)C[C@@H](C=O)NC(=O)[C@H](CC(C)C)NC(=O)[C@H](CC(C)C)NC(=O)OCc1ccccc1 [Z-LLL, N-carbobenzoxyl-L-leucinyl-L-leucinyl-L-leucinal] (Cbz-Leu-Leu-Leu-aldehyde) | significantly increased rAAV transduction | – | – | – | No toxicity |
